# According to ChEMBL document CHEMBL1201862, “PubChem BioAssay data set” (2004):
#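 Cultured in 96-well plates, cells were exposed to test compound for 48 hours across five concentrations. GI50: concentration for 50% inhibition of growth.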 Active and inactive are the calls of the source. Cut-off read from the data, not from the text of the source: active = GI50 up to about 1.1 µM and inactive = higher.
# Experiments:
# Test in all cases: NCI anticancer screen, dose series, 48 h
# IGROV-1 = tested on: IGROV-1
# SK-OV-3 = tested on: SK-OV-3
# HCC 2998 = tested on: HCC 2998
# RPMI-8226 = tested on: RPMI-8226
# A498 = tested on: A498
# DU-145 = tested on: DU-145
# NCI/ADR-RES = tested on: NCI/ADR-RES
# SK-MEL-28 = tested on: SK-MEL-28
# HCT-116 = tested on: HCT-116
# NCI-H522 = tested on: NCI-H522
# OVCAR-5 = tested on: OVCAR-5
# HOP-92 = tested on: HOP-92
# SNB-75 = tested on: SNB-75
# UO-31 = tested on: UO-31
# OVCAR-4 = tested on: OVCAR-4
# NCI-H23 = tested on: NCI-H23
# SF-268 = tested on: SF-268
# LOX IMVI = tested on: LOX IMVI
# OVCAR-3 = tested on: OVCAR-3
# COLO 205 = tested on: COLO 205
# SR = tested on: SR
# PC-3 = tested on: PC-3
# Malme-3M = tested on: Malme-3M
# MCF7 = tested on: MCF7
# SF-295 = tested on: SF-295
# EKVX = tested on: EKVX
# RXF 393 = tested on: RXF 393
# CCRF-CEM = tested on: CCRF-CEM
# BT-549 = tested on: BT-549
# MDA-MB-231 = tested on: MDA-MB-231
# HOP-62 = tested on: HOP-62
# SK-MEL-5 = tested on: SK-MEL-5
# M14 = tested on: M14
# MOLT-4 = tested on: MOLT-4
# SN12C = tested on: SN12C
# HL-60 = tested on: HL-60
# A549 = tested on: A549
# NCI-H460 = tested on: NCI-H460
# K562 = tested on: K562
# ACHN = tested on: ACHN
# SW-620 = tested on: SW-620
# SNB-19 = tested on: SNB-19
# OVCAR-8 = tested on: OVCAR-8
# Hs-578T = tested on: Hs-578T
# HCT-15 = tested on: HCT-15
# MDA-N = tested on: MDA-N
# UACC-62 = tested on: UACC-62
# HT-29 = tested on: HT-29
# TK-10 = tested on: TK-10
# U-251 = tested on: U-251
# CAKI-1 = tested on: CAKI-1
# UACC-257 = tested on: UACC-257
# 786-0 = tested on: 786-0
# MDA-MB-435 = tested on: MDA-MB-435
# NCI-H226 = tested on: NCI-H226
# SK-MEL-2 = tested on: SK-MEL-2
# T47D = tested on: T47D
# KM12 = tested on: KM12
# SF-539 = tested on: SF-539
smiles,measurement,setting,value
CCOC(=O)N1c2ccccc2N(C(=O)OCC)C1CC(=O)/C=C/c1ccccc1,GI50,IGROV-1,3.63 µM (inactive)
same,GI50,SK-OV-3,5.35 µM (inactive)
same,GI50,HCC 2998,3 µM (inactive)
same,GI50,RPMI-8226,3.19 µM (inactive)
same,GI50,A498,3.37 µM (inactive)
same,GI50,DU-145,2.69 µM (inactive)
same,GI50,NCI/ADR-RES,2.73 µM (inactive)
same,GI50,SK-MEL-28,7.57 µM (inactive)
same,GI50,HCT-116,3.3 µM (inactive)
same,GI50,NCI-H522,1.78 µM (inactive)
same,GI50,OVCAR-5,2.65 µM (inactive)
same,GI50,HOP-92,1.97 µM (inactive)
same,GI50,SNB-75,3.34 µM (inactive)
same,GI50,UO-31,3.82 µM (inactive)
same,GI50,OVCAR-4,2.23 µM (inactive)
same,GI50,NCI-H23,2.88 µM (inactive)
same,GI50,SF-268,2.37 µM (inactive)
same,GI50,LOX IMVI,2.45 µM (inactive)
same,GI50,OVCAR-3,3.13 µM (inactive)
same,GI50,COLO 205,2.04 µM (inactive)
same,GI50,SR,2.3 µM (inactive)
same,GI50,PC-3,3.94 µM (inactive)
same,GI50,Malme-3M,4.06 µM (inactive)
same,GI50,MCF7,3.1 µM (inactive)
same,GI50,SF-295,4.05 µM (inactive)
same,GI50,EKVX,2.79 µM (inactive)
same,GI50,RXF 393,3.85 µM (inactive)
same,GI50,CCRF-CEM,1.86 µM (inactive)
same,GI50,BT-549,2.89 µM (inactive)
same,GI50,MDA-MB-231,4.03 µM (inactive)
same,GI50,HOP-62,3.99 µM (inactive)
same,GI50,SK-MEL-5,2.47 µM (inactive)
same,GI50,M14,4.45 µM (inactive)
same,GI50,MOLT-4,2.4 µM (inactive)
same,GI50,SN12C,3.66 µM (inactive)
same,GI50,HL-60,2.61 µM (inactive)
same,GI50,A549,3.36 µM (inactive)
same,GI50,NCI-H460,3.03 µM (inactive)
same,GI50,K562,3.72 µM (inactive)
same,GI50,ACHN,4.15 µM (inactive)
same,GI50,SW-620,2.06 µM (inactive)
same,GI50,SNB-19,3.28 µM (inactive)
same,GI50,OVCAR-8,2.65 µM (inactive)
same,GI50,Hs-578T,1.87 µM (inactive)
same,GI50,HCT-15,2.98 µM
same,GI50,MDA-N,3.57 µM (inactive)
same,GI50,UACC-62,2.7 µM (inactive)
same,GI50,HT-29,2.94 µM (inactive)
same,GI50,TK-10,3.74 µM (inactive)
same,GI50,U-251,3.46 µM (inactive)
same,GI50,CAKI-1,1.44 µM (inactive)
same,GI50,UACC-257,6.49 µM (inactive)
same,GI50,786-0,3.3 µM (inactive)
same,GI50,MDA-MB-435,2.74 µM (inactive)
same,GI50,NCI-H226,2.81 µM (inactive)
same,GI50,SK-MEL-2,1.94 µM (inactive)
same,GI50,T47D,5.16 µM (inactive)
same,GI50,KM12,3.05 µM (inactive)
C/C(=N\NC(=S)NCCCCNC(=S)N/N=C(\C)c1ccccn1)c1ccccc1,GI50,IGROV-1,0.736 µM (active)
same,GI50,SK-OV-3,2.27 µM (inactive)
same,GI50,HCC 2998,1.66 µM (inactive)
same,GI50,RPMI-8226,1.35 µM (inactive)
same,GI50,A498,3.05 µM (inactive)
same,GI50,DU-145,0.979 µM (active)
same,GI50,NCI/ADR-RES,0.914 µM (active)
same,GI50,SK-MEL-28,2.05 µM (inactive)
same,GI50,HCT-116,0.331 µM (active)
same,GI50,NCI-H522,1.15 µM (inactive)
same,GI50,OVCAR-5,1.98 µM (inactive)
same,GI50,HOP-92,1.55 µM (inactive)
same,GI50,SNB-75,0.993 µM (active)
same,GI50,UO-31,0.635 µM (active)
same,GI50,OVCAR-4,1.43 µM (inactive)
same,GI50,NCI-H23,2.73 µM (inactive)
same,GI50,SF-268,0.394 µM (active)
same,GI50,LOX IMVI,0.845 µM (active)
same,GI50,OVCAR-3,0.424 µM (active)
same,GI50,COLO 205,0.832 µM (active)
same,GI50,SR,0.317 µM (active)
same,GI50,PC-3,3.02 µM (inactive)
same,GI50,Malme-3M,0.845 µM (active)
same,GI50,MCF7,0.416 µM (active)
same,GI50,SF-295,0.982 µM (active)
same,GI50,EKVX,2.23 µM (inactive)
same,GI50,RXF 393,1.02 µM (active)
same,GI50,CCRF-CEM,0.391 µM (active)
same,GI50,BT-549,0.897 µM (active)
same,GI50,MDA-MB-231,5.09 µM (inactive)
same,GI50,HOP-62,0.745 µM (active)
same,GI50,SK-MEL-5,0.714 µM (active)
same,GI50,MOLT-4,0.556 µM (active)
same,GI50,SN12C,0.859 µM (active)
same,GI50,A549,1.66 µM (inactive)
same,GI50,NCI-H460,0.481 µM (active)
same,GI50,K562,2.25 µM (inactive)
same,GI50,SF-539,1.11 µM (active)
same,GI50,ACHN,0.601 µM (active)
same,GI50,SNB-19,> 24.8 µM (inactive)
same,GI50,OVCAR-8,0.337 µM (active)
same,GI50,Hs-578T,> 23.6 µM (inactive)
same,GI50,HCT-15,0.484 µM
same,GI50,MDA-N,2.25 µM (inactive)
same,GI50,UACC-62,1.12 µM (active)
same,GI50,HT-29,0.531 µM (active)
same,GI50,TK-10,0.839 µM (active)
same,GI50,U-251,0.962 µM (active)
same,GI50,UACC-257,1.78 µM (inactive)
same,GI50,786-0,6.18 µM (inactive)
same,GI50,MDA-MB-435,> 100 µM (inactive)
same,GI50,SK-MEL-2,6.71 µM (inactive)
same,GI50,T47D,0.351 µM (active)
same,GI50,KM12,1.77 µM (inactive)
C=CCOC1OC(CS(=O)(=O)O)C(O)C(O)C1O (centres undefined),GI50,IGROV-1,> 100 µM (inactive)
same,GI50,SK-OV-3,> 100 µM (inactive)
same,GI50,HCC 2998,> 100 µM (inactive)
same,GI50,RPMI-8226,> 100 µM (inactive)
same,GI50,A498,> 100 µM (inactive)
same,GI50,DU-145,> 100 µM (inactive)
same,GI50,NCI/ADR-RES,> 100 µM (inactive)
same,GI50,SK-MEL-28,> 100 µM (inactive)
same,GI50,HCT-116,> 100 µM (inactive)
same,GI50,OVCAR-5,> 100 µM (inactive)
same,GI50,HOP-92,> 100 µM (inactive)
same,GI50,SNB-75,> 100 µM (inactive)
same,GI50,UO-31,> 100 µM (inactive)
same,GI50,OVCAR-4,> 100 µM (inactive)
same,GI50,NCI-H23,> 100 µM (inactive)
same,GI50,LOX IMVI,> 100 µM (inactive)
same,GI50,OVCAR-3,> 100 µM (inactive)
same,GI50,COLO 205,> 100 µM (inactive)
same,GI50,SR,> 100 µM (inactive)
same,GI50,PC-3,> 100 µM (inactive)
same,GI50,Malme-3M,> 100 µM (inactive)
same,GI50,MCF7,> 100 µM (inactive)
same,GI50,SF-295,> 100 µM (inactive)
same,GI50,RXF 393,> 100 µM (inactive)
same,GI50,CCRF-CEM,> 10 µM (inactive)
same,GI50,BT-549,> 100 µM (inactive)
same,GI50,MDA-MB-231,> 100 µM (inactive)
same,GI50,HOP-62,> 100 µM (inactive)
same,GI50,SK-MEL-5,> 100 µM (inactive)
same,GI50,M14,> 100 µM (inactive)
same,GI50,MOLT-4,> 100 µM (inactive)
same,GI50,SN12C,> 100 µM (inactive)
same,GI50,HL-60,> 100 µM (inactive)
same,GI50,NCI-H460,> 100 µM (inactive)
same,GI50,K562,27 µM (inactive)
same,GI50,SW-620,> 100 µM (inactive)
same,GI50,SNB-19,> 100 µM (inactive)
same,GI50,OVCAR-8,> 100 µM (inactive)
same,GI50,Hs-578T,> 100 µM (inactive)
same,GI50,HCT-15,> 100 µM
same,GI50,MDA-N,> 100 µM (inactive)
same,GI50,UACC-62,> 100 µM (inactive)
same,GI50,HT-29,> 100 µM (inactive)
same,GI50,TK-10,> 100 µM (inactive)
same,GI50,U-251,> 100 µM (inactive)
same,GI50,CAKI-1,> 100 µM (inactive)
same,GI50,UACC-257,> 100 µM (inactive)
same,GI50,MDA-MB-435,> 100 µM (inactive)
same,GI50,NCI-H226,> 100 µM (inactive)
same,GI50,SK-MEL-2,> 100 µM (inactive)
same,GI50,T47D,> 100 µM (inactive)
same,GI50,KM12,> 100 µM (inactive)
